According to the NIST ThermoML archive (doi:10.1016/j.jct.2012.12.025):
± gives the expanded uncertainty stated by the source.

Test: cn = amount concentration of the nth substance listed, in mol/dm3
Details: 298.15 K; 101 kPa; Liquid; Pycnometric method; c1 = 1

SMILES	mass density [kg/m3]
F[P-](F)(F)(F)(F)F.[Li+] [lithium hexafluorophosphate] + CCOC(=O)OCC	1050 ± 100
F[P-](F)(F)(F)(F)F.[Li+] [lithium hexafluorophosphate] + COC(=O)OC	1140 ± 100
F[P-](F)(F)(F)(F)F.[Li+] [lithium hexafluorophosphate] + CCOC(=O)OC	1090 ± 100
O=S(=O)([N-]S(=O)(=O)C(F)(F)F)C(F)(F)F.[Li+] [lithium bis((trifluoromethyl)sulfonyl)amide] + O=C1OCCO1	1420 ± 100
O=S(=O)([N-]S(=O)(=O)C(F)(F)F)C(F)(F)F.[Li+] [lithium bis((trifluoromethyl)sulfonyl)amide] + COC(=O)OC	1160 ± 100
F[P-](F)(F)(F)(F)F.[Li+] [lithium hexafluorophosphate] + O=C1OCCO1	1400 ± 100
O=S(=O)([N-]S(=O)(=O)C(F)(F)F)C(F)(F)F.[Li+] [lithium bis((trifluoromethyl)sulfonyl)amide] + CCOC(=O)OCC	1100 ± 100

Same assay, conditions: 298.15 K; 101 kPa; Liquid; Pycnometric method; c2 = 1

SMILES	mass density [kg/m3]
CCOC(=O)OC [ethyl methyl carbonate] + O=S(=O)([N-]S(=O)(=O)C(F)(F)F)C(F)(F)F.[Li+]	1130 ± 100

Test: not given
Details: 298.15 K; 101.33 kPa; Liquid; Pycnometric method

mass density [kg/m3]	SMILES
970 ± 100	CCOC(=O)OCC [diethyl carbonate]
1070 ± 100	COC(=O)OC [dimethyl carbonate]
1350 ± 100	O=C1OCCO1 [ethylene carbonate]

SMILES	mass density [kg/m3]
CCOC(=O)OC [ethyl methyl carbonate]	1010 ± 100

Test: wn = mass fraction of the nth substance listed
Details: 298.15 K; 101 kPa; Liquid; Pycnometric method; w1 = 0.5

mass density [kg/m3]	SMILES
1090 ± 100	O=C1OCCO1 [ethylene carbonate] + CCOC(=O)OCC
1230 ± 100	O=C1OCCO1 [ethylene carbonate] + COC(=O)OC

Same assay, conditions: 298.15 K; 101 kPa; Liquid; Pycnometric method; w2 = 0.5

SMILES	mass density [kg/m3]
CCOC(=O)OC [ethyl methyl carbonate] + O=C1OCCO1	1190 ± 100
